Like-named read-outs stand apart in the source and are kept apart here.
Assays:
[1] = target: T1, AhR (Homo sapiens, UniProt P35869); experiment: AhR translocation into the cell nucleus in HaCaT cells transfected with pEGFP-AhR plasmid; type: cell-based; parameters: host or cells: oral human keratinocyte cancer cells
T1 sequence (P35869 11-848): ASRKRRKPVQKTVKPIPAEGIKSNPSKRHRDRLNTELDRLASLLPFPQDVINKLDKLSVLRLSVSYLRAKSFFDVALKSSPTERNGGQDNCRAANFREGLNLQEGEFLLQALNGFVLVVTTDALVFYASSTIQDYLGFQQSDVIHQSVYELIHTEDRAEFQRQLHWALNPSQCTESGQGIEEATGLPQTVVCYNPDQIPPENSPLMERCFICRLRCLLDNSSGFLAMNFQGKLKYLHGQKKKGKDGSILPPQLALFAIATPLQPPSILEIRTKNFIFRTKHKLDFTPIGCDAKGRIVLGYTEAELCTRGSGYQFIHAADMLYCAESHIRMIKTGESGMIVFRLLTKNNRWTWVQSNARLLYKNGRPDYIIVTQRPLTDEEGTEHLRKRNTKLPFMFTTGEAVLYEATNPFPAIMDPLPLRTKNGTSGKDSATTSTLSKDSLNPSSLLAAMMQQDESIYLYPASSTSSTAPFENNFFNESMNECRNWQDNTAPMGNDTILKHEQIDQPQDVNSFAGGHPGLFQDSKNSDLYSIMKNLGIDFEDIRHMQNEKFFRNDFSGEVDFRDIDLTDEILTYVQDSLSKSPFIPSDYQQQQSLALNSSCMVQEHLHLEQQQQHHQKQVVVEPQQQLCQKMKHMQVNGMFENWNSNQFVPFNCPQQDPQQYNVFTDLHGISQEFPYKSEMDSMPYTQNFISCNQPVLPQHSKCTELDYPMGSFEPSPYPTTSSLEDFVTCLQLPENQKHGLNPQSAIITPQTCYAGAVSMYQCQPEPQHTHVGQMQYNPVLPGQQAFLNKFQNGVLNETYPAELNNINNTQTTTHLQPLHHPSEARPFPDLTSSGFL
Experimental: (§1) HaCaT keratinocytes were cultured in DMEM medium with 10% fetal calf serum. The cells were irradiated with UVB radiation in PBS (phosphate-buffered saline). For UVB irradiation, we used a TL20W/12RS lamp which contains four parallel tubes (Philips, Eindhoven, Netherlands) and emits the majority of its energy in the UVB range (290-320 nm). The emission peak of the lamp is at 310 nm. Control cells were subjected to identical treatment, but were not irradiated. In order to inhibit the AhR, the cells were treated with the test substance 1 h before irradiation.
HaCaT cells were plated out onto chambered microscope slides with a cell density of 5×10^4 cells/chamber. Some were pretreated with the test substance for 1 h. After 24 h, said cells were transfected with the pEGFP-AhR plasmid by means of the FuGene 6 transfection reagent (Roche, Mannheim, Germany) in accordance with the manufacturer's instructions After a further 24 h, transfected cells were irradiated with […] of UVB. After 40 min, the cells were fixed for 10 min with 4% paraformaldehyde and washed with PBS. The microscope slides were dried and mounted with Vectashield Mounting Medium (Vector Laboratories, Burlingame, Calif., USA). The AhR coupled to the GFP was visualized by means of a fluorescence microscope (Olympus, Hamburg, Germany) and photographed with a ColorViewXS digital camera (Olympus).

[2] = system: primary mouse melanocytes; experiment: Melanin content of primary mouse melanocytes, photometric at 405 nm; type: cell-based
Experimental: The cells were removed, lysed with 0.1% Triton-X100, centrifuged and the melanin content from the lysate pellet was determined photometrically in an ELISA reader at 405 nm after cell disruption with 1M NH4OH (4 h, 85° C.). The blank reading, which contained only NH4OH, was subtracted from the absorption value. In parallel, the protein content of the lysate supernatants was determined by the Bradford method.
Semiconfluent primary mouse melanocytes (culture conditions as above) were further cultured for 7 days with 10 μM MNF. The cells were removed, lysed with 0.1% Triton-X100, centrifuged and the melanin content from the lysate pellet was determined photometrically in an ELISA reader at 405 nm after cell disruption with 1M NH4OH (4 h, 85° C.). The blank reading, which contained only NH4OH, was subtracted from the absorption value.

[3] = target: T1, AhR; experiment: AhR translocation in primary mouse melanocytes transfected with pEGFP-AhR plasmid; type: cell-based; parameters: expressed in transfected cells; host or cells: primary mouse melanocytes; settings: in the presence and absence of benzo[a]pyrene
Experimental: Primary mouse melanocyte cells were plated out onto chambered microscope slides. Individual chambers were treated for 1 h with the test substances. After 24 h, the cells were transfected with the pEGFP-AhR plasmid. After a further 40 min, the cells were fixed. The microscope slides were evaluated by fluorescence microscopy. Translocation of the AhR, which is coupled to the GFP and thus fluoresces green, from the cytoplasm into the cell nucleus is visible.

[4] = target: T1, AhR; parameters: host or cells: oral human keratinocyte cancer cells; settings: cited from earlier work
[5] = Photostability on irradiation with UVB radiation; type: physicochemical; settings: photostable = no more than 10 mol % converted on UVB (40 W/m^2) for 2 hours
Experimental: For the purposes of the present invention, a photostable substance is one which, on irradiation with UVB radiation (40 W/m^2) for 2 hours, is no more than 10 mol % converted into one or more other substances. All-trans-retinoic acid, for example, is accordingly not a preferred AhR antagonist, as this substance is photolabile.

[6] = system: MMP-1; settings: cited from earlier work
[7] = system: CYP1A1; experiment: UVB-induced CYP1A1 induction in HaCaT keratinocytes, real time RT-PCR; type: cell-based, human
Experimental: as §1
HaCaT cells were irradiated with 100 J/m^2 of UVB. Some cells were pretreated with the test substance 1 h before irradiation. After 4 h, the RNA was prepared using the RNeasy kit (Qiagen, Hilden, Germany) in accordance with the manufacturer's instructions. Reverse transcription was carried out as described (Arch. Toxicol (2005) PMID 16205913). PCR fragments were amplified by means of real-time PCR in a LightCycler (Roche, Mannheim, Germany). The PCR mix was made up of 1/10 volume of QuantiTec® SYBR Green PCR Master Mixes F (Qiagen, Hilden, Germany), 0.5 μM of the particular primer, 2 μl of cDNA and DEPC-treated (diethyl pyrocarbonate-treated) H2O in a final volume of 20 μl. […] PCR conditions were as follows: 40 cycles of 15 sec 94° C. for denaturation, 25 sec 60° C. for primer attachment, 30 sec 72° C. for extension and 2 sec 72° C. for fluorescence measurement. […] The PCR products were quantified by means of a fragment-specific standard curve and analysis with LightCycler Software 3. […]
HaCaT cells were irradiated with 100 J/m^2 of UVB. […] The PCR mix was made up of 1/10 volume of QuantiTect® SYBR Green PCR Master Mixes (Qiagen, Hilden, Germany), 0.5 μM of the particular primer, 2 μl of cDNA and DEPC-treated (diethyl pyrocarbonate-treated) H2O in a final volume of 20 μl. […] PCR conditions were as follows: 40 cycles of 15 sec 94° C. for denaturation, 25 sec 60° C. for primer attachment, 30 sec 72° C. for extension and 2 sec 72° C. for fluorescence measurement. […]

[8] = target: T1, AhR; settings: human breast epithelium cells; cited from earlier work
[9] = target: T1, AhR; settings: human breast cancer cell line MCF-7; cited from earlier work
[10] = target: T1, AhR; settings: human liver cancer cell line HepG2; cited from earlier work
[11] = in the absence of UVB radiation

SMILES: COc1cc(-c2cc(=O)c3ccccc3o2)ccc1[N+](=O)[O-] [3-methoxy-4-nitroflavone]
- AhR translocation into the cell nucleus ([1]; HaCaT, in the presence and absence of UVB light): inhibited AhR translocation
- melanin content versus untreated cells ([2]; 10 μM, 7 days, p<0.05 (FIG. 4)): significantly less melanin
- AhR translocation into the cell nucleus [3]: inhibited AhR translocation

SMILES: CC1=C(/C=C/C(C)=C/C=C/C(C)=C/C(=O)O)C(C)(C)CCC1 [All-trans-retinoic acid]
- AhR activity ([4]; in the absence of TCDD): without influencing AhR activity
- TCDD-induced AhR activation ([4]; normal human keratinocytes): inhibits TCDD-induced AhR activation
- photostability [5]: photolabile
- TCDD-induced expression of MMP-1 [6]: enhancing TCDD-induced expression of MMP-1

SMILES: C/C=C/c1cc(OC)c2c(c1)C(C)C(c1ccc(O)c(OC)c1)O2 (stereo not drawn) [Compound (X)]
- CYP1A1 inhibition in the presence of UVB light ([7]; 0.0001 wt. %, HaCaT, 100 J/m^2 UVB, relative to control (PBS without test substances with 0.1% DMSO, UVB-irradiated)): 20%
- induction of CYP1A1 as a result of AhR activation in the presence of UVB light ([7]; HaCaT, UVB light): inhibited induction of CYP1A1
- induction of an AhR-inducible gene, in particular CYP1A1, by the compound itself [7, 11]: does not itself bring about induction
- translocation of AhR from the cytoplasm into the cell nucleus induced by the compound itself [1, 11]: do not induce translocation of AhR

SMILES: O=Cc1c2[nH]c3ccccc3c2cc2[nH]c3ccccc3c12 [FICZ, formylindolo(3,2b)carbazole]
- melanin content versus untreated cells ([2]; 2 days with UVB-irradiated 50 mM tryptophan solution containing FICZ, p<0.05 (FIG. 3)): significantly more melanin
- AhR translocation into the cell nucleus [3]: stimulated AhR translocation

SMILES: O=C1c2ccccc2-c2n[nH]c3cccc1c23 [anthra[1,9-cd]pyrazol-6(2H)-one]
- action of the AhR agonist TCDD [8]: capable of inhibiting the action

SMILES: O=c1cc(-c2ccc(O)c(O)c2)oc2cc(O)cc(O)c12 [luteolin]
- action of AhR [9]: has no effect
- action of AhR [10]: acts as an AhR inhibitor

SMILES: O=c1c(O)c(-c2ccc(O)c(O)c2)oc2cc(O)cc(O)c12 [quercetin]
- action of AhR [9]: prevents the action of AhR
- action of AhR [10]: has no effect
